Results published in patent US3965109A, “Certain aryl amino pyridines” (priority 1971, dated 1976).

Experiments:
Assay type in all cases: in vivo
[1] = system: Pieris brassicae (cabbage white caterpillars); experiment: Pest toxicity test; details: 0.1% by weight, 2 days
[2] = system: Plutella maculipennis (diamond back moth larvae); experiment: Pest toxicity test
[3] = system: Musca domestica (houseflies); experiment: Pest toxicity test, contact test; details: 0.1% by weight; milk/sugar; 2 days; flies sprayed directly
[4] = system: Aedes aegypti (mosquito larvae); experiment: Pest toxicity test; details: 0.01% by weight; water; 1 day
[5] = system: Tetranychus telarius (red spider mites, adults); experiment: Pest toxicity test; details: 0.1% by weight; French bean; 3 days
Megoura viceae = experiment: Pest toxicity test; details: 0.1% by weight; broad bean; 2 days
Aphis fabae = experiment: Pest toxicity test; details: 0.1% by weight; broad bean; 2 days
[6] = system: Aedes aegypti (mosquito adults); experiment: Pest toxicity test; details: 0.01% by weight; plywood; 1 day
[7] = system: Phaedon cochleariae (mustard beetles); experiment: Pest toxicity test
[8] = system: Tetranychus telarius (red spider mites, eggs); experiment: Pest toxicity test; details: 0.1% by weight; French bean; 3 days
Uncinula necator (vine) = experiment: Fungicidal test against foliar disease D (foliage spray plus soil drench); details: 100 ppm spray and drench; 10 days
[9] = system: Phytophthora infestans (tomato); details: 100 ppm spray and drench; 3 days
[10] = system: Puccinia recondita (wheat); experiment: Fungicidal test against foliar disease A (foliage spray plus soil drench); details: 100 ppm spray and drench; 10 days
[11] = system: Plasmopara viticola (vine); experiment: Fungicidal test against foliar disease C (foliage spray plus soil drench); details: 100 ppm spray and drench; 10 days
[12] = system: Piricularia oryzae (rice); details: 100 ppm spray and drench; 7 days
Carrot = experiment: Further herbicidal test, various rates; details: 5 lb/acre; scale 0 to 5 (complete kill)
Sugar beet = experiment: Further herbicidal test, various rates; details: 5 lb/acre; scale 0 to 5 (complete kill)
Tomato = experiment: Herbicidal test, pre- and post-emergence
Barley = experiment: Further herbicidal test, various rates; details: 5 lb/acre; scale 0 to 5 (complete kill)
Oat = experiment: Further herbicidal test, various rates; details: 5 lb/acre; scale 0 to 5 (complete kill)
Kale = experiment: Further herbicidal test, various rates; details: 5 lb/acre; scale 0 to 5 (complete kill)
Rice = experiment: Further herbicidal test, various rates; details: 5 lb/acre; scale 0 to 5 (complete kill)
Wheat = experiment: Herbicidal test, pre- and post-emergence
Pea = experiment: Further herbicidal test, various rates; details: 5 lb/acre; scale 0 to 5 (complete kill)
Lettuce = experiment: Herbicidal test, pre- and post-emergence
Maize = experiment: Herbicidal test, pre- and post-emergence
Onion = experiment: Further herbicidal test, various rates; details: 5 lb/acre; scale 0 to 5 (complete kill)
[13] = 0.1% by weight, mustard/paper, 2 days
[14] = 10 lb/acre (11.2 kg/ha), scale 0 (no effect) to 3 (complete kill)
[15] = 10 kg/ha, scale 0 to 3 (complete kill)

Fc1nc(F)c(Cl)c(Nc2ccccc2)c1Cl [Compound 2, 4-Anilino-3,5-dichloro-2,6-difluoropyridine]
Mortality grading (kill) [1]: 0 (O represents less than 30% kill) | Mortality grading (kill) [2, 13]: 0 (O represents less than 30% kill) | Mortality grading (kill), contact test [3]: 0 (O represents less than 30% kill) | Mortality grading (kill) [4]: 0 (O represents less than 30% kill) | Mortality grading (kill) [5]: 3 (3 represents over 90% kill) | Mortality grading (kill) (Megoura viceae): 0 (O represents less than 30% kill) | Mortality grading (kill) (Aphis fabae): 0 (O represents less than 30% kill) | Mortality grading (kill) [6]: 0 (O represents less than 30% kill) | Mortality grading (kill) [7, 13]: 0 (O represents less than 30% kill) | Mortality grading (kill) [8]: 0 (O represents less than 30% kill)

CN(C)S(=O)(=O)c1cc(Cl)c(Nc2c(Cl)c(F)nc(F)c2Cl)cc1Cl [Compound 31, 3,5-Dichlor-2,6-difluoro-4(2,5-dichlor-4-N,N-dimethylsulphamoylanilino)pyridine]
Amount of disease grading, disease D (Table 4) (Uncinula necator (vine)): 3 (0 to 5) | Amount of disease grading, disease B (Table 4) [9]: 0 (61 to 100) | Amount of disease grading, disease A (Table 4) [10]: 2 (6 to 25) | Amount of disease grading, disease C (Table 4) [11]: 3 (0 to 5) | Amount of disease grading, disease E (Table 4) [12]: 0 (61 to 100)

Fc1nc(F)c(Cl)c(Nc2c(F)c(F)c(F)c(F)c2F)c1Cl [Compound 10, 3,5-Dichloro-2,6-difluoro-4(pentafluoroanilino)pyridine]
Damage to plants, post-emergence (Carrot): 2 | Damage to plants, pre-emergence (Carrot): 1 | Damage to plants, post-emergence (Sugar beet): 3 | Damage to plants, pre-emergence (Sugar beet): 0 | Damage to plants, post-emergence (Tomato; [14]): 3 | Damage to plants, pre-emergence (Tomato; [14]): 1 | Mortality grading (kill) [1]: 0 (O represents less than 30% kill) | Mortality grading (kill) ([2]; in vivo): 0 (key: O represents less than 30% kill; 1 represents 30 - 49% kill; 2 represents 60 - 90% kill; 3 represents over 90% kill; C indicates a chemosterilant effect.; A indicates an antifeeding effect.) | Damage to plants, post-emergence (Barley): 0 | Damage to plants, pre-emergence (Barley): 3 | Mortality grading (kill), contact test [3]: 0 (O represents less than 30% kill) | Damage to plants, post-emergence (Oat): 0 | Damage to plants, pre-emergence (Oat): 0 | Mortality grading (kill) [4]: 2 (2 represents 60 - 90% kill) | Damage to plants, post-emergence (Kale): 3 | Damage to plants, pre-emergence (Kale): 1 | Mortality grading (kill) [5]: 3 (3 represents over 90% kill) | Damage to plants, post-emergence (Rice): 0 | Damage to plants, post-emergence (Wheat; [14]): 1 | Damage to plants, pre-emergence (Wheat; [14]): 0 | Mortality grading (kill) (Megoura viceae): 0 (O represents less than 30% kill) | Mortality grading (kill) (Aphis fabae): 0 (O represents less than 30% kill) | Mortality grading (kill) [6]: 2 (2 represents 60 - 90% kill) | Mortality grading (kill) ([7]; in vivo): 0 (key: O represents less than 30% kill; 1 represents 30 - 49% kill; 2 represents 60 - 90% kill; 3 represents over 90% kill; C indicates a chemosterilant effect.; A indicates an antifeeding effect.) | Damage to plants, post-emergence (Pea): 0 | Damage to plants, pre-emergence (Pea): 3 | Damage to plants, post-emergence (Lettuce; [14]): 3 | Damage to plants, pre-emergence (Lettuce; [14]): 2 | Damage to plants, post-emergence (Maize; [14]): 0 | Damage to plants, pre-emergence (Maize; [14]): 0 | Damage to plants, post-emergence (Onion): 2 | Damage to plants, pre-emergence (Onion): 0

O=[N+]([O-])c1ccc(Nc2c(Cl)c(F)nc(F)c2Cl)cc1C(F)(F)F [Compound 36, 3,5-Dichloro-2,6-difluoro-4(4-nitro-3-trifluoromethylanilino) pyridine]
Amount of disease grading, disease D (Table 4) (Uncinula necator (vine)): 0 (61 to 100) | Amount of disease grading, disease B (Table 4) [9]: 2 (6 to 25) | Amount of disease grading, disease A (Table 4) [10]: 2 (6 to 25) | Amount of disease grading, disease C (Table 4) [11]: 3 (0 to 5) | Amount of disease grading, disease E (Table 4) [12]: 1 (26 to 60)

CNC(=O)N(c1c(F)c(F)c(C#N)c(F)c1F)c1c(Cl)c(F)nc(OC)c1Cl [Compound 46]
Mortality grading (kill) [1]: 0 (O represents less than 30% kill) | Mortality grading (kill) [2, 13]: 0 (O represents less than 30% kill) | Mortality grading (kill), contact test [3]: 0 (O represents less than 30% kill) | Mortality grading (kill) [4]: 3 (3 represents over 90% kill) | Mortality grading (kill) [5]: 2 (2 represents 60 - 90% kill) | Mortality grading (kill) (Megoura viceae): 0 (O represents less than 30% kill) | Mortality grading (kill) (Aphis fabae): 0 (O represents less than 30% kill) | Mortality grading (kill) [6]: 0 (O represents less than 30% kill) | Mortality grading (kill) [7, 13]: 0 (O represents less than 30% kill) | Mortality grading (kill) [8]: 0 (O represents less than 30% kill)

O=[N+]([O-])c1ccc(Nc2c(F)c(F)nc(F)c2Cl)c([N+](=O)[O-])c1 [Compound 38, 3-Chloro-4(2,4-dinitroanilino)-2,5,6-trifluoropyridine]
Damage to plants, post-emergence (Tomato; [15]): 3 | Damage to plants, pre-emergence (Tomato; [15]): 3 | Mortality grading (kill) [1]: 3 (3 represents over 90% kill) | Mortality grading (kill) ([2]; in vivo): 0 (key: O represents less than 30% kill; 1 represents 30 - 49% kill; 2 represents 60 - 90% kill; 3 represents over 90% kill; C indicates a chemosterilant effect.; A indicates an antifeeding effect.) | Amount of disease grading, disease D (Table 4) (Uncinula necator (vine)): 3 (0 to 5) | Mortality grading (kill), contact test [3]: 0 (O represents less than 30% kill) | Mortality grading (kill) [4]: 3 (3 represents over 90% kill) | Mortality grading (kill) [5]: 3 (3 represents over 90% kill) | Damage to plants, post-emergence (Wheat; [15]): 0 | Damage to plants, pre-emergence (Wheat; [15]): 2 | Mortality grading (kill) (Megoura viceae): 0 (O represents less than 30% kill) | Mortality grading (kill) (Aphis fabae): 0 (O represents less than 30% kill) | Mortality grading (kill) [6]: 0 (O represents less than 30% kill) | Amount of disease grading, disease A (Table 4) [10]: 1 (26 to 60) | Mortality grading (kill) ([7]; in vivo): 0 (key: O represents less than 30% kill; 1 represents 30 - 49% kill; 2 represents 60 - 90% kill; 3 represents over 90% kill; C indicates a chemosterilant effect.; A indicates an antifeeding effect.) | Amount of disease grading, disease C (Table 4) [11]: 3 (0 to 5) | Damage to plants, post-emergence (Lettuce; [15]): 3 | Damage to plants, pre-emergence (Lettuce; [15]): 3 | Damage to plants, post-emergence (Maize; [15]): 0 | Damage to plants, pre-emergence (Maize; [15]): 0 | Amount of disease grading, disease E (Table 4) [12]: 2 (6 to 25) | Mortality grading (kill) [8]: 3 (3 represents over 90% kill)

O=[N+]([O-])c1cc([N+](=O)[O-])c(Nc2c(F)c(F)nc(F)c2F)cc1F [Compound 39, 4(2,4-Dinitro-5-fluoranilino)tetrafluoropyridine]
Amount of disease grading, disease D (Table 4) (Uncinula necator (vine)): 0 (61 to 100) | Amount of disease grading, disease B (Table 4) [9]: 2 (6 to 25) | Amount of disease grading, disease A (Table 4) [10]: 1 (26 to 60) | Amount of disease grading, disease C (Table 4) [11]: 3 (0 to 5) | Amount of disease grading, disease E (Table 4) [12]: 1 (26 to 60)

Fc1nc(F)c(Cl)c(Nc2cccc(C(F)(F)F)c2)c1Cl [Compound 17, 3,5-Dichloro-2,6-difluoro-4(3-trifluoromethylanilino)pyridine]
Amount of disease grading, disease D (Uncinula necator (vine)): 0 (61 to 100) | Amount of disease grading, disease B [9]: 1 (26 to 60) | Amount of disease grading, disease A [10]: 0 (61 to 100) | Amount of disease grading, disease C [11]: 3 (0 to 5) | Amount of disease grading, disease E [12]: 0 (61 to 100)
